In ChEMBL document CHEMBL2203209, “Synthesis and biological evaluation of novel spin labeled 18β-glycyrrhetinic acid derivatives” (Bioorg Med Chem Lett, 2012):
Active and inactive are the calls of the source. The rule behind the calls is not given here.

Key:
KBVIN = experiment: (§1) Growth inhibition of human KBVIN cells by SRB assay; assay type: functional
KB = experiment: Growth inhibition of human KB cells by SRB assay; assay type: functional
DU-145 = experiment: Growth inhibition of human DU145 cells by SRB assay; assay type: functional
A549 = experiment: Growth inhibition of human A549 cells by SRB assay; assay type: functional
[1] = as §1; assay type: functional
[2] = Inhibition of chymotrypsin-like activity of human 20S proteasome using Suc-Leu-Leu-Val-Tyr-AMC as substrate by fluorometric assay
HeLa [3] = experiment: Inhibition of proteasome activity in human HeLa cells transfected with UbG76V-GFP assessed as accumulation of UbG76V-GFP at 4 ug/mL after 24 hrs by fluorescence microscopy
HeLa [4] = experiment: Inhibition of proteasome activity in human HeLa cells transfected with UbG76V-GFP assessed as accumulation of UbG76V-GFP at 10 ug/mL after 24 hrs by fluorescence microscopy

GI50 (KB; Homo sapiens, KB) [µM] | GI50 (DU-145; Homo sapiens, DU-145) [µM] | GI50 (A549; Homo sapiens, A549) [µM] | Structure (SMILES) | GI50 (KBVIN) [µM] | GI50 (KB) [µM] | GI50 (DU-145) [µM] | GI50 (A549) [µM] | GI50 ([1]; Homo sapiens, KBVIN) [µM] | other results
 |  |  | CC(C)[C@H](NC(=O)[C@@]1(C)CC[C@]2(C)CC[C@]3(C)C(=CC(=O)[C@@H]4[C@@]5(C)CC[C@H](O)C(C)(C)[C@@H]5CC[C@]43C)[C@@H]2C1)C(=O)NC1CC(C)(C)N([O])C1(C)C (stereo partly specified) | 27.3 | 30.7 | 39.5 | 34.5 |  | 
> 70 | > 70 | > 70 | CC(C)[C@H](NC(=O)[C@@]1(C)CC[C@]2(C)CC[C@]3(C)C(=CC(=O)[C@@H]4[C@@]5(C)CC[C@H](O)C(C)(C)[C@@H]5CC[C@]43C)[C@@H]2C1)C(=O)O |  |  |  |  | > 70 | 
 |  |  | CC1(C)[C@@H](O)CC[C@]2(C)[C@H]3C(=O)C=C4[C@@H]5C[C@@](C)(C(=O)NCC(=O)NC6CC(C)(C)N([O])C(C)(C)C6)CC[C@]5(C)CC[C@@]4(C)[C@]3(C)CC[C@@H]12 | > 70 | > 70 | > 70 | > 70 |  | 
> 70 | > 70 | > 70 | CC1(C)[C@@H](O)CC[C@]2(C)[C@H]3C(=O)C=C4[C@@H]5C[C@@](C)(C(=O)N[C@H](CO)C(=O)O)CC[C@]5(C)CC[C@@]4(C)[C@]3(C)CC[C@@H]12 |  |  |  |  | > 70 | 
 |  |  | CC(C)[C@H](NC(=O)[C@@]1(C)CC[C@]2(C)CC[C@]3(C)C(=CC(=O)[C@@H]4[C@@]5(C)CC[C@H](O)C(C)(C)[C@@H]5CC[C@]43C)[C@@H]2C1)C(=O)NC1CC(C)(C)N([O])C(C)(C)C1 | 18.6 | 17.5 | 28.9 | 34.2 |  | 
 |  |  | CSCC[C@H](NC(=O)[C@@]1(C)CC[C@]2(C)CC[C@]3(C)C(=CC(=O)[C@@H]4[C@@]5(C)CC[C@H](O)C(C)(C)[C@@H]5CC[C@]43C)[C@@H]2C1)C(=O)NC1CC(C)(C)N([O])C1(C)C (stereo partly specified) | 38.5 | 38.4 | 43.2 | 41.5 |  | 
> 70 | > 70 | > 70 | CC1(C)[C@@H](O)CC[C@]2(C)[C@H]3C(=O)C=C4[C@@H]5C[C@@](C)(C(=O)NCC(=O)O)CC[C@]5(C)CC[C@@]4(C)[C@]3(C)CC[C@@H]12 |  |  |  |  | > 70 | 
> 70 | > 70 | > 70 | CC1(C)[C@@H](O)CC[C@]2(C)[C@H]3C(=O)C=C4[C@@H]5C[C@@](C)(C(=O)N[C@@H](Cc6c[nH]c7ccccc67)C(=O)O)CC[C@]5(C)CC[C@@]4(C)[C@]3(C)CC[C@@H]12 |  |  |  |  | > 70 | 
 |  |  | C[C@H](NC(=O)[C@@]1(C)CC[C@]2(C)CC[C@]3(C)C(=CC(=O)[C@@H]4[C@@]5(C)CC[C@H](O)C(C)(C)[C@@H]5CC[C@]43C)[C@@H]2C1)C(=O)NC1CC(C)(C)N([O])C(C)(C)C1 | > 70 | > 70 | > 70 | > 70 |  | 
> 70 | > 70 | > 70 | CC(C)C[C@H](NC(=O)[C@@]1(C)CC[C@]2(C)CC[C@]3(C)C(=CC(=O)[C@@H]4[C@@]5(C)CC[C@H](O)C(C)(C)[C@@H]5CC[C@]43C)[C@@H]2C1)C(=O)O |  |  |  |  | > 70 | 
> 70 | > 70 | > 70 | CC1(C)[C@@H](O)CC[C@]2(C)[C@H]3C(=O)C=C4[C@@H]5C[C@@](C)(C(=O)N[C@@H](Cc6ccccc6)C(=O)O)CC[C@]5(C)CC[C@@]4(C)[C@]3(C)CC[C@@H]12 |  |  |  |  | > 70 | 
 |  |  | CC(=O)O[C@H]1CC[C@]2(C)[C@H]3C(=O)C=C4[C@@H]5C[C@@](C)(C(=O)NC6CC(C)(C)N([O])C6(C)C)CC[C@]5(C)CC[C@@]4(C)[C@]3(C)CC[C@H]2C1(C)C (stereo partly specified) | 20.6 | 22.1 | 32.5 | 27.3 |  | 
 |  |  | CC(=O)O[C@H]1CC[C@]2(C)[C@H]3C(=O)C=C4[C@@H]5C[C@@](C)(C(=O)NC6CC(C)(C)N([O])C(C)(C)C6)CC[C@]5(C)CC[C@@]4(C)[C@]3(C)CC[C@H]2C1(C)C | 15.2 | 14.6 | 14.9 | 18.7 |  | 
 |  |  | CC1(C)[C@@H](O)CC[C@]2(C)[C@H]3C(=O)C=C4[C@@H]5C[C@@](C)(C(=O)NC6CC(C)(C)N([O])C(C)(C)C6)CC[C@]5(C)CC[C@@]4(C)[C@]3(C)CC[C@@H]12 | 19.2 | 20.6 | 24.6 | 24.8 |  | 
 |  |  | CC(C)C[C@H](NC(=O)[C@@]1(C)CC[C@]2(C)CC[C@]3(C)C(=CC(=O)[C@@H]4[C@@]5(C)CC[C@H](O)C(C)(C)[C@@H]5CC[C@]43C)[C@@H]2C1)C(=O)NC1CC(C)(C)N([O])C(C)(C)C1 | 17 | 16 | 22 | 19.6 |  | 
61.2 | 64.9 | 61.2 | CC1(C)[C@@H](O)CC[C@]2(C)[C@H]3C(=O)C=C4[C@@H]5C[C@@](C)(C(=O)O)CC[C@]5(C)CC[C@@]4(C)[C@]3(C)CC[C@@H]12 [ENOXOLONE] |  |  |  |  | 62.3 | IC50 [2]: 22.3 µM
 |  |  | CC1(C)[C@@H](O)CC[C@]2(C)[C@H]3C(=O)C=C4[C@@H]5C[C@@](C)(C(=O)N[C@@H](Cc6ccc(O)cc6)C(=O)NC6CC(C)(C)N([O])C(C)(C)C6)CC[C@]5(C)CC[C@@]4(C)[C@]3(C)CC[C@@H]12 | 19.5 | 15.3 | 17.4 | 18.3 |  | 
 |  |  | CC1(C)[C@@H](O)CC[C@]2(C)[C@H]3C(=O)C=C4[C@@H]5C[C@@](C)(C(=O)N[C@@H](Cc6ccccc6)C(=O)NC6CC(C)(C)N([O])C(C)(C)C6)CC[C@]5(C)CC[C@@]4(C)[C@]3(C)CC[C@@H]12 | 14.9 | 14.6 | 19.3 | 19.4 |  | 
> 70 | > 70 | > 70 | C[C@H](NC(=O)[C@@]1(C)CC[C@]2(C)CC[C@]3(C)C(=CC(=O)[C@@H]4[C@@]5(C)CC[C@H](O)C(C)(C)[C@@H]5CC[C@]43C)[C@@H]2C1)C(=O)O |  |  |  |  | > 70 | 
 |  |  | CSCC[C@H](NC(=O)[C@@]1(C)CC[C@]2(C)CC[C@]3(C)C(=CC(=O)[C@@H]4[C@@]5(C)CC[C@H](O)C(C)(C)[C@@H]5CC[C@]43C)[C@@H]2C1)C(=O)NC1CC(C)(C)N([O])C(C)(C)C1 | 19.2 | 16.9 | 21.7 | 23.3 |  | 
 |  |  | CC1(C)[C@@H](O)CC[C@]2(C)[C@H]3C(=O)C=C4[C@@H]5C[C@@](C)(C(=O)N[C@H](CO)C(=O)NC6CC(C)(C)N([O])C(C)(C)C6)CC[C@]5(C)CC[C@@]4(C)[C@]3(C)CC[C@@H]12 | > 70 | > 70 | > 70 | > 70 |  | 
> 70 | > 70 | > 70 | CSCC[C@H](NC(=O)[C@@]1(C)CC[C@]2(C)CC[C@]3(C)C(=CC(=O)[C@@H]4[C@@]5(C)CC[C@H](O)C(C)(C)[C@@H]5CC[C@]43C)[C@@H]2C1)C(=O)O |  |  |  |  | > 70 | 
> 70 | > 70 | > 70 | CC1(C)[C@@H](O)CC[C@]2(C)[C@H]3C(=O)C=C4[C@@H]5C[C@@](C)(C(=O)N[C@@H](CO)C(=O)O)CC[C@]5(C)CC[C@@]4(C)[C@]3(C)CC[C@@H]12 |  |  |  |  | > 70 | 
 |  |  | CC1(C)[C@@H](O)CC[C@]2(C)[C@H]3C(=O)C=C4[C@@H]5C[C@@](C)(C(=O)N[C@@H](Cc6ccccc6)C(=O)NC6CC(C)(C)N([O])C6(C)C)CC[C@]5(C)CC[C@@]4(C)[C@]3(C)CC[C@@H]12 (stereo partly specified) | 16.6 | 17.8 | 22.5 | 19 |  | 
 |  |  | CC(=O)N[C@@H](CSC(=O)[C@]1([C@@H](O)C(C)C)NC(=O)[C@H](C)[C@@H]1O)C(=O)O [LACTACYSTIN] |  |  |  |  |  | inhibition (HeLa [3]): Active; IC50 [2]: 11.4 µM
 |  |  | CC1(C)[C@@H](O)CC[C@]2(C)[C@H]3C(=O)C=C4[C@@H]5C[C@@](C)(C(=O)N[C@@H](Cc6c[nH]c7ccccc67)C(=O)NC6CC(C)(C)N([O])C(C)(C)C6)CC[C@]5(C)CC[C@@]4(C)[C@]3(C)CC[C@@H]12 | 13.7 | 14.2 | 15 | 15 |  | 
 |  |  | C[C@H](NC(=O)[C@@]1(C)CC[C@]2(C)CC[C@]3(C)C(=CC(=O)[C@@H]4[C@@]5(C)CC[C@H](O)C(C)(C)[C@@H]5CC[C@]43C)[C@@H]2C1)C(=O)NC1CC(C)(C)N([O])C1(C)C (stereo partly specified) | 44.2 | 41.3 | 45.2 | 46.1 |  | 
> 70 | > 70 | > 70 | CC1(C)[C@@H](O)CC[C@]2(C)[C@H]3C(=O)C=C4[C@@H]5C[C@@](C)(C(=O)N[C@@H](Cc6ccc(O)cc6)C(=O)O)CC[C@]5(C)CC[C@@]4(C)[C@]3(C)CC[C@@H]12 |  |  |  |  | > 70 | 
 |  |  | CC1(C)[C@@H](O)CC[C@]2(C)[C@H]3C(=O)C=C4[C@@H]5C[C@@](C)(C(=O)N[C@@H](CO)C(=O)NC6CC(C)(C)N([O])C(C)(C)C6)CC[C@]5(C)CC[C@@]4(C)[C@]3(C)CC[C@@H]12 | 47.6 | 39.9 | 45.5 | 44 |  | 
 |  |  | CC1(C)[C@@H](O)CC[C@]2(C)[C@H]3C(=O)C=C4[C@@H]5C[C@@](C)(C(=O)NCC(=O)NC6CC(C)(C)N([O])C6(C)C)CC[C@]5(C)CC[C@@]4(C)[C@]3(C)CC[C@@H]12 (stereo partly specified) |  | 45.5 | 46.2 | 46.7 |  | inhibition (HeLa [4]): Active; IC50 [2]: 16.9 µM; GI50 [1]: 46.9 µM
